PubChem BioAssay (NCI)
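Where inhibition never reached the appropriate level, the endpoint shown equals the highest concentration tested. Otherwise, values were interpolated linearly from a five-concentration, 48-hour dose response in 96-well plates. Abbreviation: GI50, concentration required for 50% inhibition of growth. TGI denotes the concentration required for complete inhibition of growth.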

Tests used:
Experiment in all cases: NCI-60 cell line screen, 48 h
[1] = tested on: M14 melanoma
[2] = tested on: HCT-116 colon
[3] = tested on: A498 renal
[4] = tested on: RPMI-8226 leukemia
[5] = tested on: UACC-257 melanoma
[6] = tested on: ACHN renal
[7] = tested on: HL-60(TB) leukemia
[8] = tested on: SK-MEL-2 melanoma
[9] = tested on: SF-539 CNS
[10] = tested on: RXF 393 renal
[11] = tested on: BT-549 breast
[12] = tested on: IGROV1 ovarian
[13] = tested on: SR leukemia
[14] = tested on: PC-3 prostate
[15] = tested on: LOX IMVI melanoma
[16] = tested on: UO-31 renal
[17] = tested on: COLO 205 colon
[18] = tested on: MOLT-4 leukemia
[19] = tested on: HS 578T breast
[20] = tested on: CCRF-CEM leukemia
[21] = tested on: SK-MEL-28 melanoma
[22] = tested on: MDA-N
[23] = tested on: NCI-H23 lung
[24] = tested on: EKVX NSCLC
[25] = tested on: SN12C renal
[26] = tested on: HOP-92 NSCLC
[27] = tested on: DU-145 prostate
[28] = tested on: SW-620 colon
[29] = tested on: SK-MEL-5 melanoma
[30] = tested on: NCI/ADR-RES ovarian
[31] = tested on: SNB-75 CNS
[32] = tested on: 786-0 renal
[33] = tested on: SF-268 CNS
[34] = tested on: MDA-MB-231 breast
[35] = tested on: OVCAR-8 ovarian
[36] = tested on: U251 CNS
[37] = tested on: KM12 colon
[38] = tested on: OVCAR-5 ovarian
[39] = tested on: NCI-H460 lung
[40] = tested on: TK-10 renal
[41] = tested on: OVCAR-3 ovarian
[42] = tested on: HCT-15 colon
[43] = tested on: UACC-62 melanoma
[44] = tested on: HT29 colon
[45] = tested on: K-562 leukemia
[46] = tested on: NCI-H226 lung
[47] = tested on: SNB-19 CNS
[48] = tested on: HOP-62 NSCLC
[49] = tested on: SK-OV-3 ovarian
[50] = tested on: MDA-MB-435
[51] = tested on: OVCAR-4 ovarian
[52] = tested on: MALME-3M melanoma
[53] = tested on: CAKI-1 renal
[54] = tested on: SF-295 CNS
[55] = tested on: A549 NSCLC
[56] = tested on: NCI-H522 lung
[57] = tested on: MCF7 breast
[58] = tested on: T-47D breast
[59] = tested on: HCC-2998 colon

## COc1cc(OC)c(-c2ccc(OCc3ccccc3)c3c(OC)cc(C)cc23)c2c1C(C)=N[C@H](C)C2
[1]
  TGI: 3.79 µM
[2]
  TGI: 3.97 µM
[3]
  TGI: 3.93 µM
[4]
  TGI: 3.61 µM
[5]
  TGI: 3.91 µM
[6]
  TGI: 4.01 µM
[7]
  TGI: 4.4 µM
[8]
  TGI: 4.09 µM
[9]
  TGI: 4.32 µM
[10]
  TGI: 4.94 µM
[11]
  TGI: 7.93 µM
[12]
  TGI: 3.57 µM
[13]
  TGI: 3.08 µM
[14]
  TGI: 3.9 µM
[15]
  TGI: 3.65 µM
[16]
  TGI: 2.63 µM
[17]
  TGI: 4.5 µM
[18]
  TGI: 4.28 µM
[19]
  TGI: 4.41 µM
[20]
  TGI: 4.36 µM
[21]
  TGI: 4.38 µM
[22]
  TGI: 4 µM
[23]
  TGI: 4.23 µM
[24]
  TGI: 4.39 µM
[25]
  TGI: 3.74 µM
[26]
  TGI: 3.35 µM
[27]
  TGI: 4.16 µM
[28]
  TGI: 4.68 µM
[29]
  TGI: 4.1 µM
[30]
  TGI: 3.92 µM
[31]
  TGI: 4.04 µM
[32]
  TGI: 3.8 µM
[33]
  TGI: 3.56 µM
[34]
  TGI: 4.18 µM
[35]
  TGI: 3.68 µM
[36]
  TGI: 3.91 µM
[37]
  TGI: 4.07 µM
[38]
  TGI: 4.44 µM
[39]
  TGI: 3.84 µM
[40]
  TGI: 3.43 µM
[41]
  TGI: 4.08 µM
[42]
  TGI: 4 µM
[43]
  TGI: 3.84 µM
[44]
  TGI: 3.84 µM
[45]
  TGI: 3.43 µM
[46]
  TGI: 5.52 µM
[47]
  TGI: 4.54 µM
[48]
  TGI: 4.16 µM
[49]
  TGI: 4.03 µM
[50]
  TGI: 4.12 µM
[51]
  TGI: 4.01 µM
[52]
  TGI: 3.57 µM
[53]
  TGI: > 12.5 µM
[54]
  TGI: 3.78 µM
[55]
  TGI: 4.22 µM
[56]
  TGI: 3.6 µM

## O=C(CNc1ccc(Cl)cc1)Nc1ccc(-c2nc3ccccc3s2)cc1
[1]
  GI50: 2.1 µM
  TGI: 5.15 µM
[2]
  GI50: 1.74 µM
  TGI: 3.76 µM
[3]
  GI50: 12.5 µM
  TGI: 25 µM
[4]
  GI50: 2.82 µM
  TGI: 16 µM
[5]
  GI50: 7.7 µM
  TGI: 21.6 µM
[57]
  GI50: 0.0697 µM
  TGI: 6.5 µM
[6]
  GI50: 5.81 µM
  TGI: 12.6 µM
[7]
  GI50: 2.23 µM
  TGI: 6.05 µM
[8]
  GI50: 8.96 µM
  TGI: 30.8 µM
[9]
  GI50: 4.93 µM
  TGI: 9.79 µM
[10]
  GI50: 4.95 µM
  TGI: 10.3 µM
[11]
  GI50: 1.83 µM
  TGI: 4.7 µM
[12]
  GI50: 5.79 µM
  TGI: 12.9 µM
[13]
  GI50: 1.43 µM
  TGI: > 24 µM
[14]
  GI50: 1.85 µM
  TGI: 4.41 µM
[15]
  GI50: 1.44 µM
  TGI: 2.95 µM
[16]
  GI50: 4.03 µM
  TGI: 15.4 µM
[17]
  GI50: 3.49 µM
  TGI: 10.2 µM
[18]
  GI50: 0.811 µM
  TGI: > 26.6 µM
[19]
  GI50: 7.87 µM
  TGI: 47.6 µM
[20]
  GI50: 0.859 µM
  TGI: > 100 µM
[21]
  GI50: 5.67 µM
  TGI: 11.6 µM
[23]
  GI50: 2.9 µM
  TGI: 8.8 µM
[24]
  GI50: 8.02 µM
  TGI: 24.5 µM
[25]
  GI50: 3.07 µM
  TGI: 10.5 µM
[26]
  GI50: 1.91 µM
  TGI: 5.17 µM
[27]
  GI50: 3.49 µM
  TGI: 11.7 µM
[28]
  GI50: 2.15 µM
  TGI: 4.73 µM
[29]
  GI50: 2 µM
  TGI: 5.42 µM
[30]
  GI50: 3.42 µM
  TGI: 11.4 µM
[31]
  GI50: 3.39 µM
  TGI: 14.8 µM
[32]
  GI50: 1.9 µM
  TGI: 4.03 µM
[33]
  GI50: 3.38 µM
  TGI: 10.8 µM
[34]
  GI50: 3.67 µM
  TGI: 14.7 µM
[35]
  GI50: 6.15 µM
  TGI: 17.8 µM
[36]
  GI50: 5.24 µM
  TGI: 10.8 µM
[37]
  GI50: 5.39 µM
  TGI: 16.5 µM
[38]
  GI50: 5.97 µM
  TGI: 13.3 µM
[39]
  GI50: 3.62 µM
  TGI: 12.7 µM
[40]
  GI50: 5.98 µM
  TGI: 13.7 µM
[41]
  GI50: 2.04 µM
  TGI: 3.99 µM
[42]
  GI50: 1.84 µM
  TGI: 5.32 µM
[43]
  GI50: 2.63 µM
  TGI: 8.3 µM
[44]
  GI50: 3.8 µM
  TGI: 11.4 µM
[45]
  GI50: 1.95 µM
  TGI: > 100 µM
[46]
  GI50: 2.94 µM
  TGI: 11 µM
[47]
  GI50: 6.03 µM
  TGI: 16.6 µM
[48]
  GI50: 8.62 µM
  TGI: 23.8 µM
[49]
  GI50: 12 µM
  TGI: > 78.6 µM
[50]
  GI50: 3.91 µM
  TGI: 16.6 µM
[51]
  GI50: 2.78 µM
  TGI: 19.4 µM
[52]
  GI50: 6.06 µM
  TGI: 12.6 µM
[58]
  GI50: 5.2 µM
  TGI: 16.6 µM
[59]
  GI50: 2.12 µM
  TGI: 4.24 µM
[53]
  GI50: 6.8 µM
  TGI: 20 µM
[54]
  GI50: 14.1 µM
  TGI: 28.8 µM
[55]
  GI50: 8.1 µM
  TGI: 27.4 µM
[56]
  GI50: 1.53 µM
  TGI: 3.67 µM
